What was measured:
Smn protein = Smn protein assay in cultured cells (SMN HTRF); assay type: cell-based, human; conditions: 48 hours; for maximum fold (Fold) increase of Smn protein: SMA patient fibroblast cells, 7-point concentration data, fold increase relative to vehicle control (SMN HTRF); for EC1.5x (concentration giving 1.5-fold Smn protein increase): SMA Type 1 patient fibroblast cells (GM03813), 7-point concentration curve, SMN HTRF, concentration producing 1.5 times Smn protein vs DMSO vehicle control, read-out: EC1.5x for Smn protein expression
In short: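 Smn in SMA fibroblast lysates, measured by anti-SMN HTRF after 48 h compound exposure; EC1.5x from fold change over vehicle.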

[1] = system: SMN2 minigene (full length SMN2 minigene mRNA containing SMN2 exon 7); assay: SMN2 minigene mRNA splicing RT-qPCR assay in cultured cells; assay type: cell-based, human; conditions: Homo sapiens, HEK293-H; HEK293H cells stably transfected with SMN2-A minigene; 24 hours; 7-point concentration curve; 1.5-fold relative to vehicle-treated cells; read-out: EC1.5x for production of full length SMN2 mRNA
In short: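 Full-length SMN2 minigene mRNA (exon 7 included), minigene-specific and not endogenous SMN, quantified by RT-qPCR multiplexed with GAPDH in stably transfected HEK293H cells after 24 h compound exposure at 37° C. Abundance from efficiency-corrected Ct, normalized to GAPDH and vehicle; EC1.5x reported as star bins.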

Structure (SMILES) | maximum fold (Fold) increase of Smn protein (Smn protein) | EC (1.5-fold) [1] | melting point | EC1.5x (concentration giving 1.5-fold Smn protein increase) (Smn protein)
Cc1nc(Cl)cn2cc(-c3cc4ccc(N5CCN6CCC[C@@H]6C5)cc4oc3=O)nc12 [Compound 710, 3-(6-chloro-8-methylimidazo[1,2-a]pyrazin-2-yl)-7-[(8aR)-hexahydropyrrolo[1,2-a]pyrazin-2(1H)-yl]-2H-chromen-2-one] | ** (fold increase between >1.2 and ≤1.35) | < 0.1 µM | 268 to 272 °C | 
CCCN1CCN(c2ccc3cc(-c4cc5cc(C)nc(C)c5o4)c(=O)oc3c2)CC1 [Compound 815, 3-(5,7-dimethylfuro[2,3-c]pyridin-2-yl)-7-(4-propylpiperazin-1-yl)-2H-chromen-2-one] | **** (fold increase between >1.5 and ≤1.65) | < 0.1 µM | 259 to 262 °C | < 300 nM
Cc1cn2cc(-c3cc4ccc(CCCN)cc4oc3=O)nc2c(C)n1 [Cpd 927, 7-(3-aminopropyl)-3-(6,8-dimethylimidazo[1,2-a]pyrazin-2-yl)-2H-chromen-2-one] | ** (fold increase between >1.2 and ≤1.35) | 1 to 3 µM | 212 to 216 °C | 
Cc1cn2cc(-c3cc4ccc(N5CCN[C@H](C)C5)cc4oc3=O)nc2s1 [Compound 231, 3-(2-methylimidazo[2,1-b][1,3]thiazol-6-yl)-7-[(3R)-3-methylpiperazin-1-yl]-2H-chromen-2-one] | ** (fold increase between >1.2 and ≤1.35) | 0.3 to 1 µM | 178 to 181 °C | 3000 to 10000 nM
O=c1oc2cc(N3CCN(CCO)CC3)ccc2cc1-c1cn2cccc(Cl)c2n1 [Compound 121, 3-(8-chloroimidazo[1,2-a]pyridin-2-yl)-7-[4-(2-hydroxyethyl)piperazin-1-yl]-2H-chromen-2-one] | *** (fold increase between >1.35 and ≤1.5) | 0.3 to 1 µM | 247 to 250 °C | 
Cc1cn2cc(-c3cc4ccc(N5CCN(C)CC5)cc4oc3=O)cc2cn1 [Compound 590, 7-(4-methylpiperazin-1-yl)-3-(3-methylpyrrolo[1,2-a]pyrazin-7-yl)-2H-chromen-2-one] | ***** (fold increase >1.65) | < 0.1 µM | 212 to 214 °C | < 300 nM
Cc1cn2cc(-c3cc4ccc(N5CCC(C)(N)CC5)cc4oc3=O)nc2c(C)n1 [Compound 920, 7-(4-amino-4-methylpiperidin-1-yl)-3-(6,8-dimethylimidazo[1,2-a]pyrazin-2-yl)-2H-chromen-2-one] | ***** (fold increase >1.65) | < 0.1 µM | 190 to 192 °C | < 300 nM
CCN1CCN(c2ccc3cc(-c4cn5cc(C)ncc5n4)c(=O)oc3c2)CC1 [Compound 622, 7-(4-ethylpiperazin-1-yl)-3-(6-methylimidazo[1,2-a]pyrazin-2-yl)-2H-chromen-2-one] | **** (fold increase between >1.5 and ≤1.65) | < 0.1 µM | 242 to 255 °C | < 300 nM
Cn1cc(-c2cc3ccc(N4CCNCC4)cc3oc2=O)c2ccccc21 [Compound 258, 3-(1-methyl-1H-indol-3-yl)-7-(piperazin-1-yl)-2H-chromen-2-one] | * (maximum fold increase of ≤1.2) | 0.3 to 1 µM | 201 to 203 °C | 
CN1CCCN(c2ccc3cc(-c4cn5ccc(C(F)(F)F)cc5n4)c(=O)oc3c2)CC1 [Compound 276, 7-(4-methyl-1,4-diazepan-1-yl)-3-[7-(trifluoromethyl)imidazo[1,2-a]pyridin-2-yl]-2H-chromen-2-one] | * (maximum fold increase of ≤1.2) | 0.3 to 1 µM | 244 to 249 °C | 
Cc1ccn2cc(-c3cc4c(F)cc(N5CCNCC5)cc4oc3=O)nc2c1 [Compound 424, 5-fluoro-3-(7-methylimidazo[1,2-a]pyridin-2-yl)-7-(piperazin-1-yl)-2H-chromen-2-one] | *** (fold increase between >1.35 and ≤1.5) | 0.1 to 0.3 µM | 268 to 278 °C | < 300 nM
COc1ccc(-c2cc3ccc(N4CCNCC4)cc3oc2=O)c(OC)c1 [Compound 465, 3-(2,4-dimethoxyphenyl)-7-(piperazin-1-yl)-2H-chromen-2-one] | * (maximum fold increase of ≤1.2) | 3 to 30 µM | 171 to 173 °C | 
COc1cc(OC)cc(-c2cc3ccc(N4CCN[C@H](C)C4)cc3oc2=O)c1 [Compound 412, 3-(3,5-dimethoxyphenyl)-7-[(3R)-3-methylpiperazin-1-yl]-2H-chromen-2-one] | * (maximum fold increase of ≤1.2) | 3 to 30 µM | 148 to 150 °C | 
C[C@@H]1CN(c2ccc3cc(-c4cn5ccc(Cl)cc5n4)c(=O)oc3c2)C[C@H](C)N1 [Compound 123, 3-(7-chloroimidazo[1,2-a]pyridin-2-yl)-7-[(3R,5S)-3,5-dimethylpiperazin-1-yl]-2H-chromen-2-one] | *** (fold increase between >1.35 and ≤1.5) | 1 to 3 µM | 223 to 231 °C | 300 to 1000 nM
Cc1cn2cc(-c3cc4ccc(N5CCC(NC(CO)CO)CC5)cc4oc3=O)nc2c(C)n1 [Compound 929, 7-{4-[(1,3-dihydroxypropan-2-yl)amino]piperidin-1-yl}-3-(6,8-dimethylimidazo[1,2-a]pyrazin-2-yl)-2H-chromen-2-one] | *** (fold increase between >1.35 and ≤1.5) | < 0.1 µM | 251 to 256 °C | 1000 to 3000 nM
Cc1cn2cc(-c3cc4ccc(N5CCN6CCC[C@H]6C5)cc4oc3=O)cc2cn1 [Compound 643, 7-[(8aS)-hexahydropyrrolo[1,2-a]pyrazin-2(1H)-yl]-3-(3-methylpyrrolo[1,2-a]pyrazin-7-yl)-2H-chromen-2-one] | **** (fold increase between >1.5 and ≤1.65) | < 0.1 µM | 182 to 184 °C | < 300 nM
Cc1cn2cc(-c3cc4ccc(N5C[C@@H](C)N[C@@H](C)C5)cc4oc3=O)cc2cn1 [Compound 584, 7-[(3R,5S)-3,5-dimethylpiperazin-1-yl]-3-(3-methylpyrrolo[1,2-a]pyrazin-7-yl)-2H-chromen-2-one] | ***** (fold increase >1.65) | < 0.1 µM | 172 to 174 °C | < 300 nM
C[C@@H]1CN(c2ccc3cc(-c4nc5ccccc5s4)c(=O)oc3c2)C[C@H](C)N1 [Compound 24, 3-(1,3-benzothiazol-2-yl)-7-[(3R,5S)-3,5-dimethylpiperazin-1-yl]-2H-chromen-2-one] | * (maximum fold increase of ≤1.2) | 1 to 3 µM | 248 to 252 °C | 
O=c1oc2cc(N3CCNCC3)ccc2cc1-c1noc(-c2ccccc2)n1 [Cpd 50, 3-(5-phenyl-1,2,4-oxadiazol-3-yl)-7-(piperazin-1-yl)-2H-chromen-2-one] | * (maximum fold increase of ≤1.2) | 1 to 3 µM | 214 to 221 °C | 
Cl.O=c1oc2cc(OC3CCNCC3)ccc2cc1-c1cn2cccnc2n1 [Compound 197, 3-(imidazo[1,2-a]pyrimidin-2-yl)-7-(piperidin-4-yloxy)-2H-chromen-2-one hydrochloride] | ** (fold increase between >1.2 and ≤1.35) | 0.3 to 1 µM | > 310 °C | 
C[C@@H]1CN(c2ccc3cc(-c4cn5cnccc5n4)c(=O)oc3c2)C[C@H](C)N1 [Compound 459, 7-[(3R,5S)-3,5-dimethylpiperazin-1-yl]-3-(imidazo[1,2-c]pyrimidin-2-yl)-2H-chromen-2-one] | *** (fold increase between >1.35 and ≤1.5) | < 0.1 µM | 250 to 252 °C | 3000 to 10000 nM
Cc1ccn2cc(-c3cc4ccc(N5CCN[C@@H](C)C5)cc4oc3=O)nc2n1 [Compound 229, 3-(7-methylimidazo[1,2-a]pyrimidin-2-yl)-7-[(3S)-3-methylpiperazin-1-yl]-2H-chromen-2-one] | *** (fold increase between >1.35 and ≤1.5) | 0.1 to 0.3 µM | 298 to 301 °C | 
Cc1cc(C)c2nc(-c3cc4ccc(N5CCN(C)CC5)cc4oc3=O)cn2c1 [Compound 261, 3-(6,8-dimethylimidazo[1,2-a]pyridin-2-yl)-7-(4-methylpiperazin-1-yl)-2H-chromen-2-one] | ** (fold increase between >1.2 and ≤1.35) | 0.3 to 1 µM | 232 to 238 °C | 

From patent USRE47689E1, “Compounds for treating spinal muscular atrophy” (PTC Therapeutics, Inc., priority 2011, dated 2019)
